# Results reported in patent US9981928B2, “Aryl sulfide derivatives and aryl sulfoxide derivatives as acaricides and insecticides” (BAYER CROPSCIENCE AKTIENGESELLSCHAFT, priority 2013, dated 2018).
# Read-outs that look alike come from different tables or passages of the source.
# Assay: log P determination by HPLC on reversed-phase columns (C 18), analogously to OECD Guideline 117
# Format: physicochemical
# Conditions: for logP (HCOOH): LC-MS in the acidic range, pH 2.7, 0.1% aqueous formic acid / acetonitrile; for logP (HCOOH) / logP (neutral): HPLC reversed-phase C 18; for logP (neutral): LC-MS in the neutral range, pH 7.8, 0.001 molar aqueous ammonium hydrogencarbonate / acetonitrile
# Method: The log P values were determined analogously to OECD Guideline 117 (EC Directive 92/69/EEC) by HPLC (high-performance liquid chromatography) using reversed-phase columns (C 18), by the following methods:
# [a] The LC-MS determination in the acidic range was effected at pH 2.7 with 0.1% aqueous formic acid and acetonitrile (contains 0.1% formic acid) as eluents; linear gradient from 10% acetonitrile to 95% acetonitrile. log P^[a] is also referred to as log P(HCOOH). [b] LC-MS determination in the neutral range was effected at pH 7.8 with 0.001 molar aqueous ammonium hydrogencarbonate solution and acetonitrile as eluents; linear gradient from 10% acetonitrile to 95% acetonitrile. log P^[…] is also referred to as log P(neutral).
# [1] = reversed-phase C18 HPLC column, acidic range, pH 2.7, 0.1% aqueous formic acid and acetonitrile, read-out: log P[a] / log P(HCOOH)
# [2] = acidic range, pH 2.7, 0.1% aqueous formic acid and acetonitrile, read-out: log P[a] / log P(HCOOH)
# [3] = reversed-phase C18 HPLC column, neutral range, pH 7.8, 0.001 molar aqueous ammonium hydrogencarbonate and acetonitrile, read-out: log P[b] / log P(neutral)
smiles,measurement,setting,value
"CCn1[nH]c(=O)n(C(C)C)c1=O [drawing 120 R1=CH2CH3 R10=CH(CH3)2, 1-ethyl-4-isopropyl-1,2,4-triazolidine-3,5-dione]",chromatographic logP,[1],0.62
Cc1cc(F)c(-n2c(=O)n(C(C)C)c(=O)n2CC(F)(F)F)cc1SCC(F)(F)F [Example 146],logP (HCOOH),,3.85
same,logP (neutral),,3.90
"Cc1cc(F)c(NC(=O)OCCCl)cc1SCC(F)(F)F [2-Chloroethyl N-[2-fluoro-4-methyl-5-(2,2,2-trifluoroethylsulfanyl)phenyl]carbamate]",chromatographic logP,[2],3.45
"Cc1cc(F)c(-n2c(=O)[nH]n(C)c2=O)cc1SCC(F)(F)F [4-[2-Fluoro-4-methyl-5-[(2,2,2-trifluoroethyl)sulfanyl]phenyl]-1-methyl-1,2,4-triazolidine-3,5-dione]",chromatographic logP,[1],2.02
"Cn1c(OCC2CC2)n[nH]c1=O [drawing 121 R1=CH2-cyclopropyl R10=CH3, 5-(cyclopropylmethoxy)-4-methyl-2,4-dihydro-3H-1,2,4-triazol-3-one]",chromatographic logP,[1],0.84
same,chromatographic logP,[3],0.88
"COc1n[nH]c(=O)n1C1CC1 [drawing 121 R1=CH3 R10=cyclopropyl, 4-cyclopropyl-5-methoxy-2,4-dihydro-3H-1,2,4-triazol-3-one]",chromatographic logP,[1],0.27
same,chromatographic logP,[3],0.31
CCC(C)n1c(=O)n(C2CC2)c(=O)n1-c1cc([S+]([O-])CC(F)(F)F)c(C)cc1F (centres unmarked) [Example 75],logP (HCOOH),,2.73
same,logP (neutral),,2.68
"COc1ccc(B2OC(C)(C)C(C)(C)O2)cc1SCC(F)(F)F [2-{4-Methoxy-3-[(2,2,2-trifluoroethyl)sulfanyl]phenyl}-4,4,5,5-tetramethyl-1,3,2-dioxaborolane]",chromatographic logP,[1],4.54
same,chromatographic logP,[3],4.46
"Cc1cc(C)c(B(O)O)cc1SCC(F)(F)F [VIIIa-11, {2,4-Dimethyl-5-[(2,2,2-trifluoroethyl)sulfanyl]phenyl}boronic acid]",chromatographic logP,[1],2.58
same,chromatographic logP,[3],2.57
"CCOC(=O)NNC(=O)Nc1cc(SCC(F)(F)F)c(C)cc1F [Ethyl 2-({2-fluoro-4-methyl-5-[(2,2,2-trifluoroethyl)sulfanyl]phenyl}carbamoyl)hydrazinecarboxylate]",chromatographic logP,[2],2.41
"Cc1cc(F)c(N2C(=O)OCC2C)cc1[S+]([O-])CC(F)(F)F (centres unmarked) [Example 107, 3-[2-Fluoro-4-methyl-5-(2,2,2-trifluoroethylsulfinyl)phenyl]-4-methyloxazolidin-2-one]",chromatographic logP,[1],1.79
"O=[N+]([O-])c1ccc(Cl)c(SSc2cc([N+](=O)[O-])ccc2Cl)c1 [XIX-3, 1,1′-Disulfanediylbis(2-chloro-5-nitrobenzene)]",chromatographic logP,[2],3.31
same,chromatographic logP,"neutral range, pH 7.8, 0.001 molar aqueous ammonium hydrogencarbonate and acetonitrile, read-out: log P[b] / log P(neutral)",3.35
"CC1(C)OB(c2cc(SCC(F)(F)F)c(Cl)cc2Cl)OC1(C)C [2-{2,4-Dichloro-5-[(2,2,2-trifluoroethyl)sulfanyl]phenyl}-4,4,5,5-tetramethyl-1,3,2-dioxaborolane]",chromatographic logP,[1],5.68
same,chromatographic logP,[3],5.31
"CCn1[nH]c(=O)n(-c2ccccc2)c1=O [1-Ethyl-4-phenyl-1,2,4-triazolidine-3,5-dione]",chromatographic logP,[1],0.91
"OB(O)c1ccc(Cl)c(SCC(F)(F)F)c1 [VIIIa-3, {4-Chloro-3-[(2,2,2-trifluoroethyl)sulfanyl]phenyl}boronic acid]",chromatographic logP,[1],2.4
same,chromatographic logP,[3],2.41
CCn1c(=O)n(CC(C)C)n(-c2cc(SCC(F)(F)F)c(C)cc2F)c1=O [Example 148],logP (HCOOH),,3.82
same,logP (neutral),,3.78
"Cc1cc(F)c(N2C(=O)C(=O)N(CC(F)F)C2=O)cc1[S+]([O-])CC(F)(F)F (centres unmarked) [Example 103, 1-(2,2-Difluoroethyl)-3-{2-fluoro-4-methyl-5-[(2,2,2-trifluoroethyl)sulfinyl]phenyl}imidazolidine-2,4,5-trione]",chromatographic logP,[1],2.32
same,chromatographic logP,[3],0.87
"CCn1[nH]c(=O)n(CC)c1=O [1,4-Diethyl-1,2,4-triazolidine-3,5-dione]",chromatographic logP,[1],0.14
"Cc1cc(F)c(NCC(C)O)cc1SCC(F)(F)F (centres unmarked) [1-[2-Fluoro-4-methyl-5-(2,2,2-trifluoroethylsulfanyl)aniline]propan-2-ol]",chromatographic logP,[1],3.01
"Cc1cc(C)c([S+]([O-])CC(F)(F)F)cc1N1CCNC1=O (centres unmarked) [Example 4, 1-{2,4-Dimethyl-5-[(2,2,2-trifluoroethyl)sulfinyl]phenyl}imidazolidin-2-one]",chromatographic logP,[1],1.51
same,chromatographic logP,[3],1.52
"CCn1[nH]c(=O)n(C(C)(C)C)c1=O [drawing 120 R1=CH2CH3 R10=C(CH3)3, 4-tert-butyl-1-ethyl-1,2,4-triazolidine-3,5-dione]",chromatographic logP,[1],1.15
COc1ccc(B(O)O)cc1[S+]([O-])CC(F)(F)F (centres unmarked) [VIIIb-8],chromatographic logP,[1],1.36
same,chromatographic logP,[3],1.37
"Cc1cc(C)c(B2OC(C)(C)C(C)(C)O2)cc1SCC(F)(F)F [2-{2,4-Dimethyl-5-[(2,2,2-trifluoroethyl)sulfanyl]phenyl}-4,4,5,5-tetramethyl-1,3,2-dioxaborolane]",chromatographic logP,[1],5.75
same,chromatographic logP,[3],5.64
Cc1cc(F)c(-n2c(=O)n(C3CC3)c(=O)n2C)cc1SCC(F)(F)F [Example 128],logP (HCOOH),,3.49
same,logP (neutral),,3.45
"CCC(C)n1[nH]c(=O)n(C2CC2)c1=O (centres unmarked) [drawing 120 R1=CH(CH3)CH2CH3 R10=cyclopropyl, 1-sec-butyl-4-cyclopropyl-1,2,4-triazolidine-3,5-dione]",chromatographic logP,[1],0.82
"Cc1cc(F)c(NC(=O)C(C)(C)O)cc1SCC(F)(F)F [N-[2-Fluoro-4-methyl-5-(2,2,2-trifluoroethylsulfanyl)phenyl]-2-hydroxy-2-methylpropanamide]",chromatographic logP,[1],2.81
Cn1c(=O)n(C2CC2)c(=O)n1-c1cc(SCC(F)(F)F)c(F)cc1F [Example 71],logP (HCOOH),,2.67
same,logP (neutral),,2.62
"Cc1cc(F)c(-n2c(=S)n(C3CC3)c(=O)n2C)cc1SCC(F)(F)F [4-cyclopropyl-1-{2-fluoro-4-methyl-5-[(2,2,2-trifluoroethyl)sulfanyl]phenyl}-2-methyl-5-thioxo-1,2,4-triazolidin-3-one]",chromatographic logP,[1],3.24
same,chromatographic logP,[3],3.18
"CCn1c(=O)n(-c2ccccc2)c(=O)n1-c1cc([S+]([O-])CC(F)(F)F)c(C)cc1F (centres unmarked) [Example 88, 1-Ethyl-2-{2-fluoro-4-methyl-5-[(2,2,2-trifluoroethyl)sulfinyl]phenyl}-4-phenyl-1,2,4-triazolidine-3,5-dione]",chromatographic logP,[1],2.71
same,chromatographic logP,[3],2.66
"Cn1[nH]c(=O)n(-c2cccc(C(F)(F)F)c2)c1=O [1-methyl-4-[3-(trifluoromethyl)phenyl]-1,2,4-triazolidine-3,5-dione]",chromatographic logP,[1],1.53
Cc1cc(F)c(-n2c(=O)n(C)c(=O)n2C2CCCC2)cc1SCC(F)(F)F [Example 86],logP (HCOOH),,3.75
same,logP (neutral),,3.67
"[O-][S+](CC(F)(F)F)c1cc(B(O)O)c(Cl)cc1Cl (centres unmarked) [VIIIb-6, {2,4-Dichloro-5-[(2,2,2-trifluoroethyl)sulfinyl]phenyl}boronic acid]",chromatographic logP,[1],1.86
same,chromatographic logP,[3],1.51
"CC(C)Cn1[nH]c(=O)n(C2CC2)c1=O [drawing 120 R1=CH2CH(CH3)2 R10=cyclopropyl, 4-cyclopropyl-1-isobutyl-1,2,4-triazolidine-3,5-dione]",chromatographic logP,[1],0.94
